Data taken from article PMC3016413, “An Antiretroviral/Zinc Combination Gel Provides 24 Hours of Complete Protection against Vaginal SHIV Infection in Macaques” (PLoS ONE, 2011).
pIC50: −log10 of the molar value. Where two headings read alike, the source gives them in different places.

Legend:
[1] = tested on: HIV-1 wild type; parameters: method as in Fernández-Romero unpublished; conditions: ref Fernández-Romero unpublished; read-out: IC50 against wild type; cited from earlier work
[2] = tested on: HIV-1 L100I/K103N double mutant; parameters: method as in Fernández-Romero unpublished; conditions: ref Fernández-Romero unpublished; read-out: IC50 against L100I/K103N double mutant; cited from earlier work
[3] = Vaginal pH and cytokines/chemokines in vaginal fluids after repeated gel; type: in vivo, Rhesus macaques (Macaca mulatta)
Protocol: PBMCs were isolated from EDTA blood using Ficoll-Hypaque density gradient centrifugation (Amersham Pharmacia Biotech, Uppsala, Sweden) as already described. RPMI 1640 (Invitrogen/GIBCO, Carlsbad, CA, USA) culture medium containing 2 mM L-glutamine (Invitrogen/GIBCO) 10 mM HEPES (N-2-hydroxyethylpiperazine-N'-2-ethanesulfonic acid) (Invitrogen/GIBCO), 50 µM 2-mercaptoethanol (Sigma) penicillin (100 U/ml) and streptomycin (100 µg/ml) (Invitrogen/GIBCO) and 1% heparinized human plasma (Innovative Research, Southfield, MI) was used for final re-suspension of PBMCs. Medium with 10% HI-FBS (heat inactivated fetal bovine serum) (Invitrogen/GIBCO) instead of 1% human plasma was used for the PBMC-174xCEM co-cultures. DNA was isolated from lymph nodes as described with the DNeasy® Blood & Tissue Kit (Qiagen Sciences, MD USA). […] Vaginal pH was determined by inserting pH-indicator strip (EMO Chemical Inc., Gibbstown, NJ) into the vaginal vault for 5 minutes to saturate the pH paper with vaginal fluid.
SIV-specific IFN-γ T cell responses were monitored by ELISPOT using AT-2 SIV (versus the no virus microvesicle controls) as the stimuli and SIV-specific antibodies by ELISA [36]. […] Cell-free vaginal fluids were analyzed for chemokine and cytokine expression using the monkey-reactive Beadlyte human 14-plex Detection System according to the manufacturer's instructions (Invitrogen). […]

[4] = tested on: R5 and X4 viruses; parameters: method as in PMID 16924181, PMID 18776937, PMID 7545297; conditions: read-out: antiviral IC50; cited from earlier work
[5] = tested on: R5 and X4 viruses; parameters: method as in PMID 16924181, PMID 18776937, PMID 7545297; conditions: potentially virucidal; cited from earlier work
[6] = tested on: HIV-1 Y181C mutant; parameters: method as in Fernández-Romero unpublished; conditions: ref Fernández-Romero unpublished; read-out: IC50 against Y181C mutant; cited from earlier work
[7] = tested on: HIV-1; conditions: in vitro; ref Fernández-Romero unpublished; cited from earlier work
[8] = rat, in vivo; cited from earlier work
[9] = parameters: method as in PMID 18086845; conditions: 8 h after daily treatment for 7 days with 273 µM TMC120; cited from earlier work

Structure (SMILES)	pIC50 [1]	pIC50 [2]	impact on vaginal pH ([3]; before, during and 8 or 24 h after 2 week gel administration)	impact on CXCL8 and CCL2 levels in vaginal fluids ([3]; relative to carrageenan, 2 week daily gel administration)	pIC50 [4]	pIC50 [5]	pIC50 [6]	memory effect: time exposed cells remain resistant to infection [7]	time to becoming undetectable in plasma (short plasma half-life) [8]	level of TMC120 associated with the cervical tissues [9]
O=C1Nc2ccc(Cl)cc2[C@@](C#CC2CC2)(C(F)(F)F)O1 [Efavirenz, reference compound]	9.22	< 5.00	–	–	–	–	–	–	–	–
CCC(=O)c1ccc(F)c([C@@H]2C[C@@H]2NC(=O)Nc2ccc(C#N)cn2)c1O [MIV-150]	9.15	6.05	no impact	no further impact	> 9.00	6.40	9.70	up to 5 d	≤ 24 h	–
Cc1cc(C)c(Nc2ccnc(Nc3ccc(C#N)cc3)n2)c(C)c1 [TMC120]	–	–	–	–	–	–	–	–	–	3 to 80 pg/mg
